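Test compounds were applied to cells in 96-well plates for 48 hours at 5 doses. GI50 is the concentration that inhibits growth by half.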 Calls of active or inactive are those of the source. Cut-off read from the data, not from the text of the source: active = GI50 up to about 1.1 µM and inactive = higher.
How the values were obtained:
Experiment in all cases: NCI tumour cell line growth inhibition, 48 h
MDA-MB-231 = test system: MDA-MB-231
DU-145 = test system: DU-145
T47D = test system: T47D
BT-549 = test system: BT-549
MDA-MB-435 = test system: MDA-MB-435
PC-3 = test system: PC-3
RXF 631 = test system: RXF 631
HOP-18 = test system: HOP-18
786-0 = test system: 786-0

Measured: GI50

CC(NC(=O)C(NC(=O)CNC(=O)OC(C)(C)C)C(C)C)C(=O)Oc1c(Cl)c(Cl)c(Cl)c(Cl)c1Cl (stereo not given)
inactive: MDA-MB-231 22.6 µM | DU-145 20.5 µM | T47D 23.1 µM | BT-549 23.8 µM | MDA-MB-435 23.4 µM | PC-3 16 µM

Cc1cc(OCC(O)CO)ccc1Cl (stereo not given)
inactive: RXF 631 > 100 µM | HOP-18 > 100 µM

CC1=CC2=C(C=O)C(=O)[C@](C)(O)[C@@H](O)C2=CO1
inactive: HOP-18 > 54.5 µM

CC1(C)CC2C(C1=O)C1(C)CCCC2(C)C1=O (stereo not given)
inactive: 786-0 > 100 µM | MDA-MB-231 > 100 µM | DU-145 > 100 µM | T47D > 100 µM | MDA-MB-435 > 100 µM | PC-3 > 100 µM

O=[N+]([O-])c1ccc(CNC2=NNS(=O)(=O)c3ccccc32)cc1
inactive: RXF 631 > 100 µM | 786-0 > 100 µM

COc1ccc(NC(=O)/C(=C/c2ccc(N(CCC#N)CCC#N)cc2)NC(=O)c2cc([N+](=O)[O-])ccc2Cl)cc1
inactive: RXF 631 99.5 µM | HOP-18 > 100 µM

CN(C)C(=S)/N=C1\SC(=N\c2ccccc2)/C(=N/c2ccccc2)N1c1ccc([N+](=O)[O-])cc1
inactive: MDA-MB-231 > 100 µM | DU-145 > 100 µM | T47D > 100 µM | BT-549 > 100 µM | MDA-MB-435 > 100 µM | PC-3 8.32 µM

CN(C)C(=S)/N=c1\ss/c(=N\C(=S)N(C)C)n1C1CCCCC1
inactive: 786-0 > 100 µM

Cn1c2c(c3ccccc31)CCN(CCCN1CCN(c3ccccc3)CC1)C2=O
inactive: 786-0 19.5 µM | HOP-18 15.5 µM

NC(CSC(=O)c1ccccc1)C(=O)O (stereo not given)
inactive: 786-0 > 100 µM | MDA-MB-231 > 100 µM | DU-145 > 100 µM | BT-549 > 100 µM | MDA-MB-435 > 100 µM | PC-3 > 100 µM

O=C1C=C2SC3C[C@@]24CC1(O)[N+]1=c2c4c(c(O)c4c2=C(C=N4)CC1)N3
inactive: HOP-18 2.43 µM
